Results as given in ChEMBL document CHEMBL1148221, “Constituents of Senecio chionophilus with potential antitubercular activity” (2004).
≈ marks a conversion by molar mass, not a printed value.

Test system: Mycobacterium tuberculosis
Assay: Antitubercular activity against Mycobacterium tuberculosis H37Rv ATCC 27294 by microplate Alamar blue assay
Assay type: functional

| SMILES | MIC [µg/mL] |
| --- | --- |
| C/C=C(/C)C(=O)O[C@@H]1c2c(C)coc2C(=O)[C@@H]2[C@@H](O)CC[C@H](C)[C@@]12C | 114 (≈ 329 µM) |
| CCC(C)C(=O)O[C@@H]1c2c(C)coc2C(=O)[C@@H]2[C@@H](O)CC[C@H](C)[C@@]12C (some centres not stated) | 119 (≈ 342 µM) |
| CC(=O)c1ccc(O)cc1 [4-HYDROXYACETOPHENONE] | 121 (≈ 889 µM) |
| C=C(C)[C@@H]1CC[C@]2(C(=O)O)CC[C@]3(C)[C@H](CC[C@@H]4[C@@]5(C)CC[C@H](O)C(C)(C)[C@@H]5CC[C@]43C)[C@@H]12 [BETULINIC ACID] | 32 (≈ 70.1 µM) |
| CC1(C)CC[C@]2(C(=O)O)CC[C@]3(C)C(=CC[C@@H]4[C@@]5(C)CC[C@H](O)C(C)(C)[C@@H]5CC[C@]43C)[C@@H]2C1 [OLEANOLIC_ACID] | 64 (≈ 140 µM) |
| CO[C@H]1/C=C/O[C@@]2(C)Oc3c(C)c(O)c4c(O)c(c(/C=N/N5CCN(C)CC5)c(O)c4c3C2=O)NC(=O)/C(C)=C\C=C\[C@H](C)[C@H](O)[C@@H](C)[C@@H](O)[C@@H](C)[C@H](OC(C)=O)[C@@H]1C [RIFAMPIN] | 0.03 (≈ 0.0365 µM) |
| C[C@H]1[C@H](C)CC[C@]2(C(=O)O)CC[C@]3(C)C(=CC[C@@H]4[C@@]5(C)CC[C@H](O)C(C)(C)[C@@H]5CC[C@]43C)[C@H]12 [URSOLIC ACID] | 32 (≈ 70.1 µM) |
